Test results published in patent US5776673A, “Treatment and detection of tuberculosis, leprosy, and related diseases” (priority 1995, dated 1998).

How the values were obtained:
Taq DNA polymerase [1] = biological target: T1, Taq DNA polymerase (Thermus aquaticus, UniProt P19821); settings: 10 μM 4 dNTPs, ddNTP 100 to 2,000 μM; factor versus F667Y multiplied by its absolute ratio
T7 DNA polymerase [2] = biological target: T2, T7 DNA polymerase (Escherichia phage T7, UniProt P00581, DEL118-145); format: biochemical, Bacteriophage T7; settings: for percentage of counts in the first three dideoxy-terminated fragments to the total number of counts in the primers capable of being extended: 100 μM 4dNTPs and 100 μM of one ddNTP; for M, calculated exponential decay function: 1:1 dNTP:ddNTP, fit Y=e^M*X; for Incorporation Rate Ratios dN/ddN: absolute ratios from 1:1 dNTP:ddNTP test; for D, discrimination factor, ratio of use of dNTP to comparable ddNTP: equal concentrations, D=Y/(1-Y) at X=1
Method: (§1) Reaction conditions are used that are optimum for the DNA polymerase being tested with regard to buffer, pH, salts, and temperature of the reaction. A concentration of DNA polymerase is chosen whereby most of the primers are extended in a 10 min reaction and are terminated by the incorporation of a dideoxynucleotide. The reaction mixture contains 100 μM 4dNTPs and 100 μM of one of the four ddNTPs.
(§2) We used this test to compare the ability of six DNA polymerases to incorporate each of the four ddNMPs.
(§3) The reaction mixtures also contained 10 ng of yeast inorganic pyrophosphatase to inhibit pyrophosphorolysis that could otherwise increase the apparent discrimination by the DNA polymerase (Tabor and Richardson 265 J. Biol. Chem. 8322, 1990). The reactions were initiated by the addition of 2 μl of each DNA polymerase, diluted in 20 mM Tris.HCl, pH 7.5, 10 mM 2-mercaptoethanol and 0.05% bovine serum albumin to a concentration of approximately 0.025 units/μl. […] The reactions were terminated by the addition of 10 μl 90% formamide, 20 mM EDTA, 0.05% bromphenol blue. Each sample was heated at 90° C. for 2 min immediately prior to loading 6 μl of each sample onto a gel consisting of 8% polyacrylamide, 0.4% N,N'-methylenebisacrylamide, 7M urea in 100 mM Tris borate, pH 8.3, 1 mM EDTA. Electrophoresis was at 2000 Volts for 90 min (until the bromphenol blue had just run off the bottom of the gel). After electrophoresis, the gel was dried under vacuum, and autoradiographed. After autoradiography, the distribution of radioactively labeled fragments was determined by Phosphorimager analysis (Molecular Dynamics). Alternatively, the relative intensities of dideoxy-terminated bands can be determined by scanning the autoradiograph using an instrument such as the SciScan 5000 imaging densitometer (United States Biochemical Corp).
(§4) The distribution of radioactivity in the fragments was quantitated by Phosphoimager analysis (Molecular Dynamics). The total amount of labeled primers in each lane was determined by running three control reactions in which no DNA polymerase was present, and the radioactivity in each of the corresponding radioactive bands on the gel at the position of the unextended primer was determined. […] This value is defined as the total number of counts in primers that are capable of being extended by a DNA polymerase.
(§5) The values are presented in the Table below as the percentage of counts in the first three dideoxy-terminated fragments to the total number of counts in the primers capable of being extended by a DNA polymerase.
(§6) As a further test of the efficiency of each DNA polymerase to incorporate dideoxynucleotides, the number of counts in each fragment with a significant signal was determined for each reaction, and the data were plotted as a function of the fragment number using the Macintosh program Kaleidograph Version 3.0 (Synergy Software). The resulting plots were fit to an exponential decay curve using the Kaleidograph library routine for this function. The decay curve is given by the equation: […]

Taq DNA polymerase F667Y [3] = biological target: T3, Taq DNA polymerase F667Y (Thermus aquaticus, UniProt P19821, F667Y); format: biochemical; settings: for M, calculated exponential decay function: 1:1 dNTP:ddNTP, fit Y=e^M*X; for Incorporation Rate Ratios dN/ddN: absolute ratios from 1:1 dNTP:ddNTP test; for D, discrimination factor, ratio of use of dNTP to comparable ddNTP: equal concentrations, D=Y/(1-Y) at X=1
Method: as §1, §2, §3, §4, §5, §6

E. coli DNA polymerase I [4] = biological target: T4, E. coli DNA polymerase I (Escherichia coli, UniProt P00582); settings: 10 μM 4 dNTPs, ddNTP 100 to 2,000 μM; factor versus F762Y multiplied by its absolute ratio
T7 DNA polymerase Y526F [5] = biological target: T5, T7 DNA polymerase Y526F (Escherichia phage T7, UniProt P00581, DEL118-145/Y526F); settings: 10 μM 4 dNTPs, ddNTP 100 to 2,000 μM; factor versus T7 DNA polymerase multiplied by its absolute ratio
Taq DNA polymerase F667Y [6] = biological target: T3, Taq DNA polymerase F667Y; assay: Competition of dATP and ddATP at a single site in synthetic Primer-Template A (Example 4); format: biochemical; settings: 10 μM dATP; read-out: [ddATP] for 50% inhibition
Method: (§7) Example 4. Determination of the efficiency of incorporation of dideoxynucleotides by measuring the incorporation of [α-^32 P]dAMP into synthetic primer-template complexes
(§8) In this example the competition between a dNTP and a ddNTP is assayed for use at a single site in a synthetic primer-template. This assay differs from the others in that it limits the comparison of the use of the two substrates to a single site, avoiding the complication of sequence-specific variability in discrimination. […]
(§9) Each reaction mixture contains 25 pmoles each of primer and template. […] The mixtures are incubated at 37° C. for 1 min (70° C. for thermophilic DNA polymerases), and the reactions are initiated by the addition of 5 μl aliquots (0.01 to 1 unit) of the DNA polymerase being analyzed diluted in 20 mM Tris.HCl, pH 7.5, 10 mM 2-mercaptoethanol and 0.05% bovine serum albumin. […] The disks are then dried under a heat lamp and counted in a scintillation counter in 5 ml of fluor (Opti-Fluor O, Packard). From the amount of radioactivity on each disk, the amount [^32 P]dGMP incorporated was determined. […]
(§10) All reactions are carried out with a constant amount of the DNA polymerase being analyzed; the amount of DNA polymerase should be sufficient to replicate 50% of the total […] residues in the single-stranded region of the template in the 10 min incubation in the presence of 10 μM DATP and the absence of ddATP. […]

Taq DNA polymerase [7] = biological target: T1, Taq DNA polymerase; assay: as above; format: biochemical; settings: 10 μM dATP; read-out: [ddATP] for 50% inhibition
Method: as §7, §8, §9, §10

E. coli DNA polymerase I [8] = biological target: T4, E. coli DNA polymerase I; assay: as above; format: biochemical; set-up: The large fragment of E. coli DNA polymerase I, commonly called the Klenow fragment; settings: 10 μM dATP; read-out: [ddATP] for 50% inhibition
Method: as §7, §8, §9, §10

T7 DNA polymerase Y526F [9] = biological target: T5, T7 DNA polymerase Y526F; assay: as above; format: biochemical, Bacteriophage T7; settings: 10 μM dATP; read-out: [ddATP] for 50% inhibition
Method: as §7, §8, §9, §10

T7 DNA polymerase [10] = biological target: T2, T7 DNA polymerase; assay: as above; format: biochemical, Bacteriophage T7; settings: 10 μM dATP; read-out: [ddATP] for 50% inhibition
Method: as §7, §8, §9, §10

| Compound | Incorporation Rate Ratios dN/ddN (Taq DNA polymerase [1]) | percentage of counts in the first three dideoxy-terminated fragments to the total number of counts in the primers capable of being extended (T7 DNA polymerase [2]) [%] | M, calculated exponential decay function (T7 DNA polymerase [2]) | Incorporation Rate Ratios dN/ddN (T7 DNA polymerase [2]) | D, discrimination factor, ratio of use of dNTP to comparable ddNTP (T7 DNA polymerase [2]) | M, calculated exponential decay function (Taq DNA polymerase F667Y [3]) | Incorporation Rate Ratios dN/ddN (Taq DNA polymerase F667Y [3]) | D, discrimination factor, ratio of use of dNTP to comparable ddNTP (Taq DNA polymerase F667Y [3]) | Incorporation Rate Ratios dN/ddN (E. coli DNA polymerase I [4]) | Incorporation Rate Ratios dN/ddN (T7 DNA polymerase Y526F [5]) | IC50 (Taq DNA polymerase F667Y [6]) [µM] | IC50 (Taq DNA polymerase [7]) [µM] | IC50 (E. coli DNA polymerase I [8]) [µM] | IC50 (T7 DNA polymerase Y526F [9]) [µM] | IC50 (T7 DNA polymerase [10]) [µM] |
| --- | --- | --- | --- | --- | --- | --- | --- | --- | --- | --- | --- | --- | --- | --- | --- |
| Nc1nc2c(ncn2[C@H]2CC[C@@H](COP(=O)(O)OP(=O)(O)OP(=O)(O)O)O2)c(=O)[nH]1 [ddGTP] | 1,400 | 67 | -0.375 | 3.2 | 2.2 | -1.18 | 0.45 | 0.45 | 140 | 6,400 |  |  |  |  |  |
| Cc1cn([C@H]2CC[C@@H](COP(=O)(O)OP(=O)(O)OP(=O)(O)O)O2)c(=O)[nH]c1=O [ddTTP] | 4,500 | 76 | -0.450 | 2.8 | 1.8 | -1.01 | 0.56 | 0.56 | 1,100 | 8,400 |  |  |  |  |  |
| Nc1ncnc2c1ncn2[C@H]1CC[C@@H](COP(=O)(O)OP(=O)(O)OP(=O)(O)O)O1 [ddATP] | 4,700 | 66 | -0.356 | 3.3 | 2.3 | -0.997 | 0.59 | 0.59 | 720 | 7,300 | ~5 | > 500 | > 500 | > 500 | ~30 |
| Nc1ccn([C@H]2CC[C@@H](COP(=O)(O)OP(=O)(O)OP(=O)(O)O)O2)c(=O)n1 [ddCTP] | 2,600 | 61 | -0.317 | 3.7 | 2.7 | -1.44 | 0.32 | 0.32 | 250 | 11,000 |  |  |  |  |  |
